Laboratory results from patent US12358886B2, “Heterocyclic compounds for use in the treatment of cancer” (Artios Pharma Limited, priority 2019, dated 2025).

Biological target: Polθ protein (amino acids 2-2590) (Homo sapiens, UniProt O75417)
Assay: Polθ full length enzyme potency assay (PicoGreen)
Settings: Polθ IC50 (nM), full length N-His, C-term FLAG tagged Polθ, PicoGreen fluorescence, 12 point concentration response

Chain of Polθ protein (amino acids 2-2590) (O75417 2-2590): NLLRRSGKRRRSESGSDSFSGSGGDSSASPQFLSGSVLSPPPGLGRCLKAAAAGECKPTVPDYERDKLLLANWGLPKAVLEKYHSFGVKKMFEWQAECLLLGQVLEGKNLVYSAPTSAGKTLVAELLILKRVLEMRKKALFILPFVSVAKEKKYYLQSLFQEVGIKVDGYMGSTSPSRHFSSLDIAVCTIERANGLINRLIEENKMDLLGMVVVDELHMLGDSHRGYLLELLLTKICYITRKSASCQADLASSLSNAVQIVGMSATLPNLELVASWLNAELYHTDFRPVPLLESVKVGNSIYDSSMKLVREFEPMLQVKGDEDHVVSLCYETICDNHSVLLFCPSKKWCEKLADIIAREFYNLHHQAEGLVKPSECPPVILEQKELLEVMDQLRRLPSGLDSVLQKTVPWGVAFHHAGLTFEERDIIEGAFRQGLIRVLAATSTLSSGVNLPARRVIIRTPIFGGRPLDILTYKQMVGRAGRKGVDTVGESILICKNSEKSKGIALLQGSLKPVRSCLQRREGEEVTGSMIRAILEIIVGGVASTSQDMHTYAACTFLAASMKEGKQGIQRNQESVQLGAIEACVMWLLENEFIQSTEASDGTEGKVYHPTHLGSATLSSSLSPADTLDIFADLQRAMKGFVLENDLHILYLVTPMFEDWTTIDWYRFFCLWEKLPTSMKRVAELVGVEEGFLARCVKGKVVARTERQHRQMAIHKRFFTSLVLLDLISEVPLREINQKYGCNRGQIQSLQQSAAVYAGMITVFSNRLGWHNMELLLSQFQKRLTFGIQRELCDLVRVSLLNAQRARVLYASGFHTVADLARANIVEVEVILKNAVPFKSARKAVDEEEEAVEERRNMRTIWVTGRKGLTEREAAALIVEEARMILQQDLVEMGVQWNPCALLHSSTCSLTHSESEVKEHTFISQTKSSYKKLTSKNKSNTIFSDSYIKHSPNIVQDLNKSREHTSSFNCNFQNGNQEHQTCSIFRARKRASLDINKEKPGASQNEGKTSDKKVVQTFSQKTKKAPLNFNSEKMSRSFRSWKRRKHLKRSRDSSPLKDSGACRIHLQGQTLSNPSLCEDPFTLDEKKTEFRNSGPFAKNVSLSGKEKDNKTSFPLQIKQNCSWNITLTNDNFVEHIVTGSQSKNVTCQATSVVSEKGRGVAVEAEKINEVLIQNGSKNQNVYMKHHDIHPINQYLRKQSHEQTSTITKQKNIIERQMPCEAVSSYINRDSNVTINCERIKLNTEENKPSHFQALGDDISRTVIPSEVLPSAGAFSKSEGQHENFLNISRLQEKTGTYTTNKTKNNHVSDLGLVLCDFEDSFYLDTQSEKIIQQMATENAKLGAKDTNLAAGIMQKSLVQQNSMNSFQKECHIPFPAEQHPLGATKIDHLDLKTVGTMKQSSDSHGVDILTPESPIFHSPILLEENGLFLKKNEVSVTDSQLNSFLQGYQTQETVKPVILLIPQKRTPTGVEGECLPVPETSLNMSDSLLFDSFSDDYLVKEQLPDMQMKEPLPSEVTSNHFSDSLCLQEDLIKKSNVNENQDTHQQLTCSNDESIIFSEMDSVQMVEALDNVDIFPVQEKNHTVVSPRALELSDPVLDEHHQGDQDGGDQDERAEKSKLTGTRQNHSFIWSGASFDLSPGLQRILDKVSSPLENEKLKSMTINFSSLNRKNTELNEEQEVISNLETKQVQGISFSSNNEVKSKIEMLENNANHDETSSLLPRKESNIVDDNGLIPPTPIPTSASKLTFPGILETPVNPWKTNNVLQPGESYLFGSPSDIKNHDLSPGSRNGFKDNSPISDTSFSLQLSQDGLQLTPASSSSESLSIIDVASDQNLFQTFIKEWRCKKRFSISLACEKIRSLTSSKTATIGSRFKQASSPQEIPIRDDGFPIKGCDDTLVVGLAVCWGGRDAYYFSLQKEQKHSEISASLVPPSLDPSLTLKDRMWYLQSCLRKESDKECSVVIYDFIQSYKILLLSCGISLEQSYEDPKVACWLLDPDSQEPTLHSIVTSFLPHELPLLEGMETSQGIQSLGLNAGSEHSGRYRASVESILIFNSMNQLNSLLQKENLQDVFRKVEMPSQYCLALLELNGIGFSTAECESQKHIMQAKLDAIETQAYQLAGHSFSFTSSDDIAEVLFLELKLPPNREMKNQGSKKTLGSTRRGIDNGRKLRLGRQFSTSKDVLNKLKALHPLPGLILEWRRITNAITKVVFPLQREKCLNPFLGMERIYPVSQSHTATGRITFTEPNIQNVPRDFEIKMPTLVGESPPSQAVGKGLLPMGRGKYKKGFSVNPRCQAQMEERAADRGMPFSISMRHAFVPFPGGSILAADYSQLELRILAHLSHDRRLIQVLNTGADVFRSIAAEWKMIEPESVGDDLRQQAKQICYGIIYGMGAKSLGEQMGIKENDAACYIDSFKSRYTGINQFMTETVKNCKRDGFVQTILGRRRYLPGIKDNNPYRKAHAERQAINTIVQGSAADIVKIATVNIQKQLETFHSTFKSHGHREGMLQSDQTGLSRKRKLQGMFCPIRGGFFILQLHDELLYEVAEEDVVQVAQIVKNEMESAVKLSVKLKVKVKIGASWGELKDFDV

Row | Structure (SMILES) | IC50 [nM]
1 | CCN(C(=O)[C@@H]1C[C@H](N2CCC(O)C2)CN1c1cc(C(F)(F)F)cc(C)n1)c1ccc(F)c(F)c1 (stereo partly drawn) [Example 129, (3S,5S)-N-(3,4-Difluorophenyl)-N-ethyl-3-hydroxy-1′-(6-methyl-4-(trifluoromethyl)pyridin-2-yl)-[1,3′-bipyrrolidine]-5′-carboxannide] | 78
2 | CCN(C(=O)[C@@H]1C[C@H](N2CCOCC2)CN1c1nc(C)cc(C)c1C#N)c1cccc(C)c1 [Example 42, (2S,4S)-1-(3-Cyano-4,6-dimethylpyridin-2-yl)-N-ethyl-4-morpholino-N-(m-tolyl)pyrrolidine-2-carboxamide] | 25
3 | CCN(C(=O)[C@@H]1C[C@H](N(C)C2CNC(=O)C2)CN1c1cc(C(F)(F)F)cc(C)n1)c1ccc(F)c(F)c1 (stereo partly drawn) [Example 145, (2S,4S)-N-(3,4-Difluorophenyl)-N-ethyl-4-(methyl(5-oxopyrrolidin-3-yl)amino)-1-(6-methyl-4-(trifluoromethyl)pyridin-2-yl)pyrrolidine-2-carboxamide] | 708
4 | CCN(C(=O)[C@H]1C[C@@H](NCCS(C)(=O)=O)CN1c1nc(C)cc(C)c1C#N)c1cccc(C)c1 (stereo in doubt) [Example 45, (2R,4R)-1-(3-Cyano-4,6-dimethylpyridin-2-yl)-N-ethyl-4-((2-(methylsulfonyl)ethyl)-amino)-N-(m-tolyl)pyrrolidine-2-carboxamide] | 85
5 | CNC(=O)CCN1C[C@@H](C(=O)N(C)c2ccc(F)c(Cl)c2)N(c2cc(C(F)(F)F)cc(C)n2)C1=O [Example 191, (S)—N-(3-Chloro-4-fluorophenyl)-N-methyl-3-(6-methyl-4-(trifluoromethyl)pyridin-2-yl)-1-(3-(methylamino)-3-oxopropyl)-2-oxoimidazolidine-4-carboxamide] | 12
6 | CCN(C(=O)[C@@H]1C[C@H](N2CC(O)C2)CN1c1cc(C(F)(F)F)cc(C)n1)c1ccc(F)c(F)c1 [Example 130, (2S,4S)-N-(3,4-Difluorophenyl)-N-ethyl-4-(3-hydroxyazetidin-1-yl)-1-(6-methyl-4-(trifluoromethyl)pyridin-2-yl)pyrrolidine-2-carboxamide] | 100
7 | COc1cc(C(F)(F)F)c(C#N)c(N2C[C@@H](O)C[C@H]2C(=O)N(C)c2cccc(C)c2)n1 [Example 30, (2S,4S)-1-(3-Cyano-6-methoxy-4-(trifluoromethyl)pyridin-2-yl)-4-hydroxy-N-methyl-N-(m-tolyl)pyrrolidine-2-carboxamide] | 514
8 | Cc1cc(C(F)(F)F)cc(N2C(=O)N(CCS(C)(=N)=O)C[C@H]2C(=O)N(C)c2ccc(F)c(Cl)c2)n1 (stereo partly drawn) [Example 213, (4S)—N-(3-Chloro-4-fluorophenyl)-N-methyl-3-(6-methyl-4-(trifluoromethyl)pyridin-2-yl)-1-(2-(S-methylsulfonimidoyl)ethyl)-2-oxoimidazolidine-4-carboxamide] | 26
9 | Cc1cc(C(F)(F)F)cc(N2C(=O)OC[C@H]2C(=O)N(C)c2ccc(Cl)c(F)c2F)n1 [Example 101, (S)-N-(4-Chloro-2,3-difluorophenyl)-N-methyl-3-(6-methyl-4-(trifluoromethyl)pyridin-2-yl)-2-oxooxazolidine-4-carboxamide] | 23
10 | Cc1cc(C(F)(F)F)cc(N2C(=O)N(CCN3CCNCC3)C[C@H]2C(=O)N(C)c2ccc(F)c(Cl)c2F)n1 [Example 192, (S)—N-(3-Chloro-2,4-difluorophenyl)-N-methyl-3-(6-methyl-4-(trifluoromethyl)pyridin-2-yl)-2-oxo-1-(2-(piperazin-1-yl)ethyl)imidazolidine-4-carboxamide] | 9
11 | CCN(C(=O)[C@@H]1C[C@H](N(C)CCS(C)(=O)=O)CN1c1nc(C)cc(C)c1C#N)c1cccc(C)c1 [Example 46, (2S,4S)-1-(3-Cyano-4,6-dimethylpyridin-2-yl)-N-ethyl-4-(methyl(2-(methylsulfonyl)-ethyl)amino)-N-(m-tolyl)-pyrrolidine-2-carboxamide] | 227
12 | CCN(C(=O)[C@H]1C[C@@H](NC)CN1c1nc(C)cc(C)c1C#N)c1cccc(C)c1 (stereo in doubt) [Example 43, (2R,4R)-1-(3-Cyano-4,6-dimethylpyridin-2-yl)-N-ethyl-4-(methylamino)-N-(m-tolyl)-pyrrolidine-2-carboxamide] | 221
13 | COc1cc(N(C)C(=O)[C@@H]2COC(=O)N2c2cc(C(F)(F)F)cc(C)n2)ccc1Cl [Example 91, (S)-N-(4-Chloro-3-methoxyphenyl)-N-methyl-3-(6-methyl-4-(trifluoromethyl)pyridin-2-yl)-2-oxooxazolidine-4-carboxamide] | 81
14 | CCN(C(=O)[C@H]1C[C@@H](N(C)C)CN1c1nc(C)cc(C)c1C#N)c1cccc(C)c1 (stereo in doubt) [Example 39, (2R,4R)-1-(3-Cyano-4,6-dimethylpyridin-2-yl)-4-(dimethylamino)-N-ethyl-N-(m-tolyl)pyrrolidine-2-carboxamide] | 27
15 | Cc1cc(C(F)(F)F)c(C#N)c(N2C[C@@H](O)C[C@H]2C(=O)N(C)c2ccc(C(F)(F)F)c(F)c2)n1 [Example 19, (2S,4S)-1-(3-Cyano-6-methyl-4-(trifluoromethyl)pyridin-2-yl)-N-(3-fluoro-4-(trifluoromethyl)-phenyl)-4-hydroxy-N-methyl-pyrrolidine-2-carboxamide] | 524
16 | Cc1cc(C(F)(F)F)cc(N2C(=O)N(CC3CNCCO3)C[C@H]2C(=O)N(C)c2ccc(F)c(Cl)c2F)n1 (stereo partly drawn) [Example 218, (4S)—N-(3-Chloro-2,4-difluorophenyl)-N-methyl-3-(6-methyl-4-(trifluoromethyl)pyridin-2-yl)-1-(morpholin-2-ylmethyl)-2-oxoimidazolidine-4-carboxamide] | 16
17 | Cc1cc(C(F)(F)F)cc(N2C(=O)NC[C@H]2C(=O)N(c2ccc(F)c(Cl)c2F)C2CC2)n1 [Example 161, (S)—N-(3-Chloro-2,4-difluorophenyl)-N-cyclopropyl-3-(6-methyl-4-(trifluoromethyl)-pyridin-2-yl)-2-oxoimidazolidine-4-carboxamide] | 12
18 | Cc1cccc(N(C)C(=O)[C@@H]2[C@H](O)[C@H](O)CN2c2nc(C)cc(C(F)(F)F)c2C#N)c1 [Example 54, (2S,3S,4R)-1-(3-Cyano-6-methyl-4-(trifluoromethyl)pyridin-2-yl)-3,4-dihydroxy-N-methyl-N-(m-tolyl)pyrrolidine-2-carboxamide] | 13
19 | COc1cc(N(C)C(=O)[C@@H]2COC(=O)N2c2cc(C(F)(F)F)cc(C)n2)ccc1F [Example 90, (S)-N-(4-Fluoro-3-methoxyphenyl)-N-methyl-3-(6-methyl-4-(trifluoromethyl)pyridin-2-yl)-2-oxooxazolidine-4-carboxamide] | 226
20 | CNc1cccc(N(C)C(=O)[C@@H]2COC(=O)N2c2cc(C(F)(F)F)cc(C)n2)n1 [Example 176, (S)—N-Methyl-3-(6-methyl-4-(trifluoromethyl)pyridin-2-yl)-N-(6-(methylamino)pyridin-2-yl)-2-oxooxazolidine-4-carboxamide] | 94
21 | Cc1cc(C(F)(F)F)c(C#N)c(N2C[C@@H](O)C[C@H]2C(=O)N(C)c2ccc(F)c(CF)c2)n1 [Example 15, (2S,4S)-1-(3-Cyano-6-methyl-4-(trifluoromethyl)pyridin-2-yl)-N-(4-fluoro-3-(fluoromethyl)-phenyl)-4-hydroxy-N-methyl-pyrrolidine-2-carboxamide] | 57
22 | Cc1cc(C(F)(F)F)cc(N2C(=O)[C@@H](O)[C@@H](O)[C@H]2C(=O)N(C)c2ccc(F)c(C)c2)n1 [Example 67, (2S,3S,4S)-N-(4-Fluoro-3-methyl-phenyl)-3,4-dihydroxy-N-methyl-1-(6-methyl-4-(trifluoromethyl)pyridin-2-yl)-5-oxopyrrolidine-2-carboxamide] | 6
23 | Cc1cc(C(F)(F)F)cc(N2C(=O)OC[C@H]2C(=O)N(C)c2ccc(Cl)cc2Cl)n1 [Example 171, (S)-N-(2,4-Dichlorophenyl)-N-methyl-3-(6-methyl-4-(trifluoromethyl)pyridin-2-yl)-2-oxooxazolidine-4-carboxamide] | 68
24 | Cc1cccc(N(C(=O)[C@@H]2CCCN2c2nc(C)cc(C(F)(F)F)c2C#N)C(C)C)c1 [Example 2, (S)-1-(3-Cyano-6-methyl-4-(trifluoromethyl)pyridin-2-yl)-N-isopropyl-N-(m-tolyl)pyrrolidine-2-carboxamide] | 9
25 | CCN(C(=O)[C@@H]1CNC(=O)N1c1cc(C(F)(F)F)cc(C)n1)c1ccc(F)c(Cl)c1 [Example 157, (S)—N-(3-Chloro-4-fluorophenyl)-N-ethyl-3-(6-methyl-4-(trifluoromethyl)pyridin-2-yl)-2-oxoimidazolidine-4-carboxamide] | 32
26 | Cc1cccc(N(C)C(=O)[C@@H]2[C@H](O)[C@H](O)CN2c2nc(C)cc(C)c2C#N)c1 [Example 55, (2S,3S,4R)-1-(3-Cyano-4,6-dimethyl-pyridin-2-yl)-3,4-dihydroxy-N-methyl-N-(m-tolyl)-pyrrolidine-2-carboxamide] | 118
27 | Cc1cc(C(C)C)cc(N2C(=O)OC[C@H]2C(=O)N(C)c2ccc(F)c(Cl)c2)n1 [Example 118, (S)—N-(3-Chloro-4-fluorophenyl)-3-(4-isopropyl-6-methylpyridin-2-yl)-N-methyl-2-oxooxazolidine-4-carboxamide] | 25
28 | Cc1cc(C(F)(F)F)cc(N2C(=O)OC[C@H]2C(=O)N(C)c2ccc3cc[nH]c3c2)n1 [Example 126, (S)—N-(1H-Indol-6-yl)-N-methyl-3-(6-methyl-4-(trifluoromethyl)pyridin-2-yl)-2-oxooxazolidine-4-carboxamide] | 11
29 | Cc1cc(C(F)(F)F)cc(N2C(=O)N(CCO)C[C@H]2C(=O)N(C)c2ccc(F)c(Cl)c2)n1 [Example 193, (S)—N-(3-Chloro-4-fluorophenyl)-1-(2-hydroxyethyl)-N-methyl-3-(6-methyl-4-(trifluoromethyl)pyridin-2-yl)-2-oxoimidazolidine-4-carboxamide] | 6
